BindingDB's records for doi:10.1021/jm0204441 (The Danish University of Pharmaceutical Sciences, 2003)

Assay: Electrophysiological data on Xenopus oocytes, expressing homomeric kainate receptor (GluR5)

CC(C)(C)c1s[nH]c(=O)c1C[C@H](N)C(=O)O [2-Amino-3-(5-tert-butyl-3-hydroxy-isothiazol-4-yl)-propionic acid]
EC50: 0.1 µM
